“And” between values parts separate entries of the source, which are not always exact repeats. Equal entries are not always repeated.
Key:
[1] = test system: gentamicin-induced nephritis model; assay: Therapeutic effect of compounds 1-3 on gentamicin-induced nephritis model (Experimental Example 10); assay type: in vivo, male SD rats; details: for Creatinine / B.U.N.: 20 mg/kg; for Creatinine: negative control 1.32 ± 0.12, normal 0.45 ± 0.01; for B.U.N.: negative control 83.0 ± 5.1, normal 12.4 ± 0.6
Procedure: A normal group was subjected to the tests, where a nephritis-inducing factor, gentamicin (purchased from Whail Pharma. Co., Ltd.) was administered to male SD rats (7 weeks old, 195-205 g, Orient) at a dosage of 240 mg/kg for 6 days through an intraperitioneal injection to induce nephritis. Among the test rats with induced nephritis, the test groups other than the negative control group received the 2 test drugs of Example 2 or the test drug of Example 3.1 or 3.4 orally at a daily dosage of 400 mg/kg. The test rats were autopsied 7 days after the oral administrations. The blood samples collected were analyzed to detect blood urea nitrogen (B.U.N.) and creatinine.
To evaluate the therapeutic effect for nephritis of the three compounds of Experimental Example 9, the procedures were carried out in the same manner of Experimental Example 1 to measure the B.U.N and creatinine contents in the gentamicin-induced nephritis model. Reagents were the compounds 1, 2 and 3, which were the active fractions from the herbal extracts of Cinnamomi Cortex and Prunella Spica.

[2] = test system: croton oil-induced ear edema; assay: Mouse ear edema inhibition test (croton oil); assay type: in vivo, male ICR mouse; details: ear swelling thickness 4 hours after 2.5% croton oil, oral 20 mg/kg, 1 hour before
Procedure: To achieve active fraction and ingredient identification of herbal extracts, an activity-guided sub-fractionation was conducted by way of a mouse ear edema inhibition test. To evaluate the edema inhibitory effects of the MC, EA and BuOH fractions from the herbal extracts of Examples 1.2 and 1.3 and the three compounds identified above, an activity test was conducted according to a method by Hee Kee Kim et al. [Hee Kee Kim et al., Arch. Pharm. Res. 16(1), 1993, 18-24]. The positive control group received Indomethacin (purchased from Sigma) at a dosage of 20 mg/kg. The test group received 200 mg/kg of the MC, EA or BuOH fraction, or 20 mg/kg of the compound 1, 2 or 3. One hour after the oral administration, 2.5% croton oil (purchased from Sigma) was applied to the one ear of a male ICR mouse (7 weeks old, 28-32 g, Orient) to induce an acute inflammation. In 4 hours, the swelling of the ear was measured in terms of thickness.

[3] = relative to negative control group

Row | Structure (SMILES) | Creatinine [1] [mg/dL] | B.U.N. [1] [mg/dL] | effect on blood urea nitrogen (B.U.N.) content [1, 3] | % Inhibition ([2]; 20 mg/kg) | % Inhibition ([2]; listed as positive control group, 20 mg/kg) [%] | % Inhibition [2] [%] | effect on creatinine content [1, 3]
1 | O=c1ccc2ccccc2o1 [Compound 2, Coumarin] | 0.88 ± 0.06 | 50.9 ± 4.7 | showed an effect of reducing the blood urea nitrogen (B.U.N.) content | 39% and 38.79% |  |  | 
2 | COc1ccc2c(c1)c(CC(=O)O)c(C)n2C(=O)c1ccc(Cl)cc1 [Positive Control Group, Indomethacin, reference compound] |  |  |  | 38.81% | 39 |  | 
3 | O=C(/C=C/c1ccc(O)c(O)c1)O[C@H](Cc1ccc(O)c(O)c1)C(=O)O [Compound 3, Rosmarinic acid] | 0.97 ± 0.06 | 63.1 ± 7.2 |  |  |  | 28.90 | 
4 | O=C(O)C=Cc1ccccc1 [Compound 1, Cinnamic acid] | 0.81 ± 0.07 | 47.7 ± 5.7 | showed an effect of reducing the blood urea nitrogen (B.U.N.) content | 42% and 42.40% |  |  | reduced the creatinine content

Reference: patent publication US8642096B2, “Pharmaceutical composition containing herbal extract for prevention or treatment of nephritis” (Ahn-Gook Pharmaceutical Co., Ltd., priority 2009, dated 2014)
